Values of other authors in patent US20200206184A1, “PHARMACEUTICAL COMPOSITIONS FOR THE TREATMENT OF DISEASE AND/OR SYMPTOMS IN ARTHRITIS” (priority 2004, published 2020).

Columns and labels:
[1] = system: patient with Mediterranean fever; details: 50 mg of THC
[2] = system: PBQ-induced writhing in mice; details: ranking among cannabinoids
[3] = system: collagen induced arthritis model in mice
[4] = system: nitric oxide
[5] = system: TNF-α

| Compound | Amount of analgesia that the patient required [1] | Reducing analgesia and inflammation [2] | Arthritis in collagen induced arthritis model [3] | Nitric oxide production [4] | TNF-α production [5] | Inhibition of PBQ-induced writhing ([2]; mice, oral administration) |
| --- | --- | --- | --- | --- | --- | --- |
| CCCCCc1cc(O)c2c(c1)OC(C)(C)[C@@H]1CCC(C)=C[C@@H]21 [THC, delta-9-tetrahydrocannabinol] | highly significant reduction | least effective | – | – | – | – |
| CCCCCc1cc(O)c2c(c1)OC(C)(C)c1ccc(C)cc1-2 [CBN] | – | least effective | – | – | – | – |
| C=C(C)[C@@H]1CCC(C)=C[C@H]1c1c(O)cc(CCCCC)cc1O [CBD, cannabidiol] | – | – | suppress arthritis in a dose dependant manner | inhibition | inhibition | most effective |
